Structures are written as SMILES.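 Exposure lasted 48 hours, with cells grown in 96-well plates and compounds tested at five concentrations. TGI is the concentration that stops growth completely.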

Test in all cases: inhibition of tumour cell growth, NCI panel, 48 h
Experiment [1] relates to NCI-H23 lung.
The test system of experiment [2] is ACHN renal.
For experiment [3], the system named is DMS 273 small cell lung.
Experiment [4] concerns RPMI-8226 leukemia.
The subject of experiment [5] is M14 melanoma.
The test system of experiment [6] is MALME-3M melanoma.
In experiment [7] the test system is NCI-H522 lung.
In experiment [8] the test system is DMS 114 small cell lung.
Experiment [9] relates to CCRF-CEM leukemia.
Experiment [10] deals with M19-MEL melanoma.
For experiment [11], the system named is SNB-75 CNS.

For `C=C1CCC2[C@@H](CCC3[C@]2(C)CCC[C@]3(C)C(=O)OC)C1CCO` (some centres not stated), the TGI is 23.2 µM in [1]; 29.4 µM in experiment [2]; 24.9 µM in experiment [3]; 17 µM in experiment [4]; 26.5 µM in experiment [5]; 35.8 µM in experiment [6]. The TGI in [7] was found to be 21.6 µM; in experiment [8], 20.3 µM; in experiment [9], 33.1 µM; in experiment [10], 29.9 µM; in experiment [11], 19.7 µM.
For `O=c1[nH]c(-c2ccc(-c3nc4cc([N+](=O)[O-])ccc4c(=O)[nH]3)cc2)nc2cc([N+](=O)[O-])ccc12`, the TGI in [1], in experiment [2], in experiment [3], in experiment [4], in [5] and in experiment [6] was > 100 µM in each case. Besides, the TGI in experiment [7], in experiment [8], in experiment [9], in [10] and in [11] was > 100 µM throughout.
For `Cc1ccc(Sc2ccc(C)cc2[N+](=O)[O-])c([N+](=O)[O-])c1`, the TGI in [1], in experiment [2], in [3], in experiment [4], in experiment [5] and in experiment [6] was > 100 µM throughout. The TGI in [7], in experiment [8], in experiment [9], in experiment [10] and in experiment [11] was > 100 µM each time.
Regarding `CCOC(=O)C1=C(Nc2cccc3ccccc23)OC/C1=N\NC(=O)c1ccccc1O`, the TGI in experiment [1] was 15.3 µM; in experiment [2] it was > 100 µM; in [3], > 61.1 µM; in [4], > 100 µM; in [5], > 100 µM; in experiment [6], > 100 µM. Moreover, the TGI is 24.8 µM in [7]; 31.6 µM in experiment [8]; 37.1 µM in [9]; > 100 µM in [10]; 39.5 µM in experiment [11].
With `CS/C(=N\c1nccs1)NC(=O)c1cccc(Cl)c1`, the TGI in experiment [1], in experiment [2], in experiment [3], in experiment [4], in experiment [5] and in experiment [6] was > 100 µM throughout. The TGI in experiment [7], in [8], in [9], in [10] and in [11] was > 100 µM in each case.
Consider `CC#CC1C(OC(=O)c2ccccc2)CCCC1(CI)N=[N+]=[N-]` (configuration not stated), for which the TGI in [1] was > 100 µM; in [2], > 100 µM; in [3], > 100 µM; in [4], 86.2 µM; in experiment [5] it was > 100 µM; in experiment [6] it was > 100 µM. In addition, the TGI in experiment [7] is 63.8 µM; in [8], 99.2 µM; in experiment [9], > 100 µM; in experiment [10] it was > 100 µM; in [11] it was > 100 µM.
In the case of `COc1ccc(/C=C2\CCC(CN(C)C)C2=O)cc1OC` (configuration not stated), the TGI in experiment [1] turned out to be 32.3 µM; in [2] it was 15.9 µM; in experiment [3], 29.8 µM; in experiment [4] it was 5.95 µM; in experiment [5], 16.1 µM; in experiment [6], 11.7 µM. The TGI is 4.23 µM in experiment [7]; 34.3 µM in experiment [8]; 6.74 µM in [9]; 24.4 µM in [10]; 30.5 µM in [11].

Values taken from PubChem BioAssay (NCI).
